From patent US10563272B2, “Compositions comprising Metarhizium fungi and use thereof as a pesticide” (Cotton Research and Development Corporation, priority 2015, dated 2020)

Experiments:
[1] = tested on: Bemisia tabaci b-type adults and nymphs; experiment: Rate trial on Bollgard II cotton, Norwood 2011-2012 (Example 11): silverleaf whiteflies; format: in vivo; settings: DAT 511 250 mL, 500 mL, 1 L/ha; Pyriproxyfen 500 mL/ha; P<0.001
Method: This trial was conducted on an irrigated Bollgard II® cotton crop on a commercial cotton farm at Norwood near Moree, NSW, in 2011-2012.
(§1) The following treatments were evaluated against Bemisia tabaci b-type adults and nymphs: • 1. 250 mL/ha DAT 511 spore in oil (1×10^7 spores/ml); • 2. 500 mL/ha DAT 511 spore in oil (1×10^7 spores/ml); • 3. 1 L/ha DAT 511 spore in oil (1×10^7 spores/ml); • 4. 500 mL/ha Pyriproxyfen (conventional insecticide); and • 5. Unsprayed (control).
(§2) The treatment plots were arranged in a randomized complete block design with three replicates per treatment. Each replicated plot measured 40 m wide (40 rows) and 90 m long.
Foliar applications of each treatment were made on 28 Feb. and 20 Mar. 2012. […] On each sampling date, 20 plants from each replicate were randomly selected and B. tabaci adults on one leaf from the 5th node below the terminal of each plant were counted. […]
(§3) In the case of nymphs, one leaf from the 5th node below the terminal of each of the 20 plants was cut, removed and carefully placed individually in a plastic bag. The plastic bags containing the leaves were taken to the laboratory and the B. tabaci nymphs were counted under a binocular microscope. Data of both adults and nymphs were expressed as numbers per leaf per treatment.

[2] = tested on: Bemisia tabaci b-type adults and nymphs; experiment: Rate trial on Bollgard cotton, Cooinda St George 2011-2012 (Example 13): silverleaf whiteflies; format: in vivo; settings: P<0.001; FIG. 50
Method: This trial was conducted on an irrigated Bollgard cotton crop on a commercial cotton farm at Cooinda, St George, Queensland, in 2011-2012.
as §1, §2
Foliar applications of each treatment were made on 12 Mar. and 26 Mar. 2012. […] On each sampling date, 20 plants from each replicate were randomly selected and B. tabaci adults on one leaf from the 5th node below the terminal of each plant were counted. […]
as §3

CC(COc1ccc(Oc2ccccc2)cc1)Oc1ccccn1 (centres unmarked) [Pyriproxyfen]
SLW adults and nymphs versus the unsprayed [1]: fewer
silverleaf whitefly adults and nymphs versus unsprayed plots [2]: Significantly fewer
